Measurements from publication PMC4783701 (Scientific Reports, 2016).
Values after ≈ are worked out from the molar mass of the structure shown. Values joined by “and” are separate entries in the source; they are usually repeats but may differ in a detail not shown here. Equal values may be shown once.

Tests used:
[1] = target: PAN endonuclease (N-terminal domain of the PA subunit) (Influenza A virus, UniProt P03433); type: biochemical
influenza H1N1 virus [2] = assay: microbe, parasite or virus in culture; type: cell-based, influenza A virus; settings: for IC50: Influenza A virus, H1N1, MDCK
MTT cytotoxicity assay = type: cell-based, canine; settings: dog, MDCK cells
Method: Selectivity index (SI) of each compound was defined as the ratio of CC50 over IC50. CC50 value was determined with MTT assay according to the manufacturer’s protocol (Invitrogen), while IC50 data was obtained by plaque reduction assay. Both assays were done in MDCK cells and values were calculated using Sigma plot 12.0 (SPSS).

influenza H1N1 virus [3] = type: cell-based, influenza A virus
H1N1 virus = assay: microbe, parasite or virus in culture; type: cell-based; settings: Influenza A virus, H1N1, MDCK, 24 h
H3N2 virus = type: cell-based, influenza A virus; settings: MDCK, MOI 0.002, 24 h post-infection
H5N1 virus = assay: microbe, parasite or virus in culture; type: cell-based; settings: Influenza A virus, H5N1, MDCK, 24 h
H7N7 virus = assay: microbe, parasite or virus in culture; type: cell-based; settings: Influenza A virus, H7N7, MDCK, 24 h
H7N9 virus = type: cell-based, influenza A virus; settings: MDCK, MOI 0.002, 24 h post-infection
H9N2 virus = assay: microbe, parasite or virus in culture; type: cell-based; settings: Influenza A virus, H9N2, MDCK, 24 h
[4] = test system: multiple subtypes of influenza virus, including H1N1, H3N2, H5N1, H7N7, H7N9, and H9N2; type: cell-based, influenza A virus; settings: all tested subtypes; for inhibition of viral replication: serial-diluted compound
influenza H1N1 virus [5] = type: cell-based, influenza A virus; remark: listed apart in the source
[6] = target: influenza polymerase activity (PB1, PB2, PA, NP) (Influenza A virus, UniProt P03433); type: cell-based
PAN protein = PAN protein (Influenza A virus, UniProt P03433); assay: biochemical; type: binding
Solubility in PBS = type: physicochemical; settings: read-out: solubility limitation

Q: Which “PAN Endonuclease Inhibition Postive” value [1] does the source give for `Nc1c(C(=O)O)cc(O)c2c1C(=O)c1ccccc1C2=O` [Compound 5302115] here?
A: The value was “Y”.

Q: And the “Anti-H1N1 Positive” value (influenza H1N1 virus [2])?
A: Its value is “Y”.

Q: With `O=C([O-])Cc1c[nH]c2ccc(O)cc12.[K+]` [Compound 5106705] as the compound, how does the “PAN Endonuclease Inhibition Postive” value [1] read?
A: Its value is “Y”.

Q: What does the source list for `O=C1N=c2ccccc2=C1NNC1=NC(=O)/C(=C2/C(=O)Nc3ccccc32)S1` [ANA-0, (5Z)-2-[2-(2-oxoindol-3-yl)hydrazinyl]-5-(2-oxo-1H-indol-3-ylidene)-1,3-thiazol-4-one]?
A: IC50 compared with that of DPBA [1]: lower IC50s; Selectivity Index (CC50/IC50) (influenza H1N1 virus [2]): > 500; IC50 (influenza H1N1 virus [2]): 800 ± 100 nM; CC50 (MTT cytotoxicity assay): > 400000 nM; reduction in supernatant viral titer (influenza H1N1 virus [3]): 2–3 log; IC50 (H1N1 virus): < 1000 nM; concentration required for similar inhibition relative to H1N1 and H9N2 (H3N2 virus): 5 fold and > 5 fold; IC50 (H5N1 virus): ~2500 nM; IC50 (H7N7 virus): ~2500 nM; concentration required for similar inhibition relative to H1N1 and H9N2 (H7N9 virus): 5 fold and > 5 fold; IC50 (H9N2 virus): < 1000 nM; suppression of virus replication ([4]; 20 μM): more than 3 logs; inhibition of viral replication [4]: inhibited viral replication of all tested subtypes of influenza virus in a dose-dependent manner; antiviral efficacy when added during virus absorption (-1 h) and then removed (influenza H1N1 virus [5]): did not exert antiviral efficacy; intracellular and supernatant vRNA when added at 1 h p.i. and maintained (influenza H1N1 virus [5]): significant decrease of viral RNAs; intracellular viral mRNA production (influenza H1N1 virus [5]): reduced the viral mRNA production; vRNAs in cell lysates (influenza H1N1 virus [5]): subsequent decrease of vRNAs in cell lysates; luciferase activity (viral polymerase function) [6]: dose-dependent suppression of luciferase activity; Kd (PAN protein): 1100 nM; solubility (Solubility in PBS): 1000 µg/mL (≈ 2570 µM)

Q: With `O=C1C=CC(=NS(=O)(=O)c2ccc(Cl)cc2)C=C1Cl` [Compound 5158517] as the compound, how does the “PAN Endonuclease Inhibition Postive” value [1] read?
A: Its value is “Y”.

Q: With `C=CCN1C(=O)C(=Cc2cccn2-c2cccc([N+](=O)[O-])c2)C(=O)NC1=S` [Compound 5987504] as the compound, how does the “PAN Endonuclease Inhibition Postive” value [1] read?
A: The value was “Y”.

Q: And the “Anti-H1N1 Positive” value (influenza H1N1 virus [2])?
A: The value was “Y”.

Q: What does the source list for `Oc1c(Br)cc(C=NNc2nc3ccccc3s2)c(O)c1Br` [Compound 5482349]?
A: PAN Endonuclease Inhibition Postive [1]: Y; Anti-H1N1 Positive (influenza H1N1 virus [2]): Y

Q: With `O=C1C=CC(=O)C(C(=CNCc2ccccc2)[N+](=O)[O-])=C1` [Compound 5261378] as the compound, how does the “PAN Endonuclease Inhibition Postive” value [1] read?
A: Its value is “Y”.

Q: Which “PAN Endonuclease Inhibition Postive” value [1] does the source give for `O=C1C(=O)c2ccccc2C(Cl)=C1Cl` [Compound 6304348] here?
A: The value was “Y”.

Q: What does the source list for `C=CCN1C(=O)/C(=C\c2cccn2-c2ccc([N+](=O)[O-])cc2)C(=O)NC1=S` [PA-48]?
A: Selectivity Index (CC50/IC50) (influenza H1N1 virus [2]): 10; plaque number reduction (influenza H1N1 virus [2]): reduce the plaque number in a dose-dependent manner; IC50 (influenza H1N1 virus [2]): 2000 ± 100 nM; CC50 (MTT cytotoxicity assay): 20000 ± 5000 nM

Q: With `CN(C)c1ccc(C=C2SC(=NN=C3C(=O)Nc4ccccc43)NC2=O)cc1` [Compound 5404571] as the compound, how does the “PAN Endonuclease Inhibition Postive” value [1] read?
A: Its value is “Y”.

Q: And the “Anti-H1N1 Positive” value (influenza H1N1 virus [2])?
A: The value was “Y”.

Q: What does the source list for `Oc1c(Br)cc(/C=N/Nc2nc3ccccc3s2)c(O)c1Br` [PA-35]?
A: Selectivity Index (CC50/IC50) (influenza H1N1 virus [2]): 58; plaque number reduction (influenza H1N1 virus [2]): reduce the plaque number in a dose-dependent manner; IC50 (influenza H1N1 virus [2]): 1300 ± 500 nM; CC50 (MTT cytotoxicity assay): 75000 ± 23000 nM

Q: For `CN(C)c1ccc(/C=C2\S/C(=N\N=C3\C(=O)Nc4ccccc43)NC2=O)cc1` [PA-30], which “IC50 compared with that of DPBA” value [1] is on record?
A: Its value is “lower IC50s”.

Q: And the “Selectivity Index (CC50/IC50)” value (influenza H1N1 virus [2])?
A: The value was over 200.

Q: And the plaque number reduction (influenza H1N1 virus [2])?
A: The plaque number reduction was “reduce the plaque number in a dose-dependent manner”.

Q: What about the IC50 (influenza H1N1 virus [2]) of the same compound?
A: The IC50 was 1500 ± 200 nM.

Q: What about the CC50 (MTT cytotoxicity assay) of the same compound?
A: The CC50 was over 300000 nM.

Q: What about the “reduction in supernatant viral titer” value (influenza H1N1 virus [3]) of the same compound?
A: The value was 2–3 log.

Q: And the “inhibition of viral replication” value [4]?
A: Its value is “inhibited viral replication of all tested subtypes of influenza virus in a dose-dependent manner”.

Q: And the Kd (PAN protein)?
A: Its Kd is 1300 nM.

Q: What does the source list for `Nc1c(C(=O)O)cc(O)c2c1C(=O)c1ccccc1C2=O` [PA-24]?
A: Selectivity Index (CC50/IC50) (influenza H1N1 virus [2]): 129; plaque number reduction (influenza H1N1 virus [2]): reduce the plaque number in a dose-dependent manner; IC50 (influenza H1N1 virus [2]): 1400 ± 300 nM; CC50 (MTT cytotoxicity assay): 180000 ± 15000 nM

Q: Which “intracellular and supernatant vRNA when added at 1 h p.i. and maintained” value (influenza H1N1 virus [5]) does the source give for `CC(=O)N[C@H]1[C@H]([C@H](O)[C@H](O)CO)OC(C(=O)O)=C[C@@H]1N=C(N)N` [zanamivir, reference compound] here?
A: Its value is “reduced the vRNA in the supernatant but not inside the cells”.
